How the values were obtained:
[1] = system: P. putida LS46; experiment: Effects of salicylic acid on production of mcl-PHAs by P. putida LS46; assay type: cell-based, Pseudomonas putida; conditions: 1.0 mM salicylic acid; Ramsey's medium + 2% glucose; 48 h
[2] = system: P. putida LS46; experiment: Growth of P. putida LS46 in the presence of salicylic acid; assay type: cell-based, Pseudomonas putida; conditions: salicylic acid at 10 mM
Procedure: (§1) Salicylic acid has been used as an inhibitor of β-oxidation in plant, animal, and bacterial cells. […] Salicylic acid at 10 mM inhibited P. putida LS46 growth. Therefore, 1-5 mM concentration of salicylic acid was studied for its effect on mcl-PHA production by P. putida LS46. To separate volumes of Ramsey's liquid medium supplemented with 2% of glucose were added: (i) no salicylic acid (control), (ii) 1.0 nM salicylic acid, (iii) 2.5 mM salicylic acid, or (iv) 5.0 salicylic acid. After sterilization, the liquid media were dispensed into flasks which were then each inoculated with 1% inoculum of P. putida LS46, and then cultured for 48 h. Cultures were then harvested and their cdw, the percentage accumulation of mcl-PHAs in the cells, and the mol % monomer composition of C8 […] the mcl-PHAs were determined. […] 3-hydroxyoctanoate decreased, while 3-hydroxydecanoate increased, in the presence of 2.5 mM and 5.0 mM salicylic acid, compared with the control (Table 6).

[3] = system: P. aeruginosa; conditions: salicylic acid between 5 mM and 60 mM in growth medium; cited from earlier work
[4] = system: P. putida LS46; experiment: Effects of salicylic acid on production of mcl-PHAs by P. putida LS46; assay type: cell-based, Pseudomonas putida; conditions: Ramsey's medium + 2% glucose, 48 h
Procedure: Six of the microbial isolates (i.e., LS1, LS5, LS33, LS34, LS39, LS46) that produced epifluorescence under UV illumination were separately cultured for 72 h in: (i) 200 mL LB broth, and (ii) 200 mL LB broth supplemented with 3 g/L glucose. The microbial cells were centrifuged at 4500 g for 20 min in a Sorvall RC6-Plus centrifuge. The microbial pellets were washed twice in 0.85% NaCl and then dried at 80° C. for 48 h. The intracellular PHA contents and PHA composition were determined by GC-MS following the method taught by Braunegg et al. (1978, Eur. J. Appl. Microbiol. Biotechnol. 6:29-37). Dried cells (20 mg) were mixed with 1 mL chloroform and 1 mL methanol containing 15% sulphuric acid. Benzoic acid (1 mg/mL) was used as an internal standard. The suspensions were refluxed at 100° C. for 4 h, after which, 0.5 ml of water were added to each suspension. The mixtures were centrifuged at 4000×g. The lower chloroform layers were separated and analyzed using a GC-MS fitted FID detector and aHP-5 capillary column. The initial oven temperature was set at 75° C. for 6 min and then was increased to 265° C. with a ramping rate of 20° C./min.
as §1, with “To separate volumes of Ramsey's liquid medium supplemented with 2% of glucose were added: (i) no salicylic acid (control), (ii) 1.0 nM salicylic acid, (iii) 2.5 mM salicylic acid, or (iv) 5.0 salicylic acid.” left out

O=C(O)c1ccccc1O [Salicylic acid, salicylic acid]
3-hydroxyalkanoate monomer content C6 [1]: 3.97 mol % | 3-hydroxyalkanoate monomer content C8 [1]: 46.30 mol % | PHA content [1]: 26.07 % CDW | growth of P. putida LS46 [2]: inhibited | monomer composition of mcl-PHAs produced by P. aeruginosa [3]: altered the monomer composition | 3-hydroxyalkanoate monomer content C10 ([4]; 1.0 mM salicylic acid): 47.90 mol % | 3-hydroxyalkanoate monomer content C12 ([4]; 1.0 mM salicylic acid): 1.91 mol % | CDW ([4]; 1.0 mM salicylic acid): 3.08 g/L | 3-hydroxyalkanoate monomer content C6 ([4]; 2.5 mM salicylic acid): 3.39 mol % | 3-hydroxyalkanoate monomer content C8 ([4]; 2.5 mM salicylic acid): 44.06 mol % | 3-hydroxyalkanoate monomer content C10 ([4]; 2.5 mM salicylic acid): 52.03 mol % | 3-hydroxyalkanoate monomer content C12 ([4]; 2.5 mM salicylic acid): 0.93 mol % | CDW ([4]; 2.5 mM salicylic acid): 2.89 g/L | PHA content ([4]; 2.5 mM salicylic acid): 28.90 % CDW | 3-hydroxyalkanoate monomer content C6 ([4]; 5.0 mM salicylic acid): 2.46 mol % | 3-hydroxyalkanoate monomer content C8 ([4]; 5.0 mM salicylic acid): 42.49 mol % | 3-hydroxyalkanoate monomer content C10 ([4]; 5.0 mM salicylic acid): 53.36 mol % | 3-hydroxyalkanoate monomer content C12 ([4]; 5.0 mM salicylic acid): 0.66 mol % | CDW ([4]; 5.0 mM salicylic acid): 2.64 g/L | PHA content ([4]; 5.0 mM salicylic acid): 21.89 % CDW
